Measured values: US20150111852A1, “1-Di(sec-butyl)-phosphinoyl-pentane (dapa-2-5) as a topical agent” (priority 2013, published 2015)

Tests used:
Type in all cases: in vivo, human
[1] = tested on: oral cavity and pharyngeal surfaces; experiment: Sensory activity of ODT-A on volunteers; settings: 6 to 8 trials per compound
Experimental: ODT-A was prepared by dissolving the DAPA compound in absolute ethanol, adding a 80% mannitol-20% maltitol mixture of equal weight and then adding an equal volume of distilled water. The mixture was the stirred with a glass rod, and dispensed onto a piece of wax or parchment paper with a disposable plastic pipette. The viscous liquid drop formed was then dried under a heat source for at least 4 hr. The nominal dose of the API in ODT-A ranged from 1 to 3 mg/tablet. The dried tablets weighed on average 150 mg each and when on the dorsal surface of the tongue, rapidly dissolved completely in saliva and coated the oropharyngeal surface. These tablets were suitable for initial pilot studies, but were not uniform in size, were friable, especially in conditions of high ambient humidity, and were not readily amenable to further analytical evaluation.
Sensory Qualities of ODT on the Oral Cavity and Pharyngeal Surfaces The DAPA ODT of Study 2 were evaluated for sensory properties on volunteers. The ODT-A results [see table] are from 6 to 8 trials per compound in several experienced individuals familiar with sensory properties of “cooling agents”. The results of ODT-A will be discussed together with ODT-B and ODT-C.

[2] = tested on: throat; experiment: Cold water test after ODT-A (cold discomfort); parameters: key: If the subject felt “normal coolness” in the throat, the value was “0”; if the water felt “excessively cold” on the throat, it was rated as “+”; if there was “aching cold/discomfort” on the throat, the ranking was “++”; settings: ODT-A on the tongue, ice water drunk 10 min later
Experimental: After application of ODT-A there were sensations associated with heat abstraction of various intensity and duration. Of particular note was the sensation of “icy or painful” cold was felt with some compounds, but the effect was variable. To isolate this sensation more precisely and reduce variability, ODT-A was placed on the tongue and 10 min later the subject was instructed to drink a mouthful of water previously equilibrated with ice chips. If the subject felt “normal coolness” in the throat, the value was “0”; if the water felt “excessively cold” on the throat, it was rated as “+”; and if there was “aching cold/discomfort” on the throat, the ranking was “++”. The term “cold discomfort” was applied compounds that produced “++”, and this phenomenon could now be reliably defined and identified with the cold water test.

[3] = tested on: mouth and throat; experiment: Sensory activity of ODT-C on volunteers (double-blind, modified ASHRAE scale); settings: for ODT-C test results (sensation and taste in words) / duration of cooling effect: 1.2 to 1.5 mg per ODT; for ODT-C test results (sensation and taste in words): 4 volunteers; for quality of heat abstraction sensation (peak intensity) / duration of cooling effect: ODT-C; for ASHRAE equivalent: peak heat abstraction sensation, modified ASHRAE scale neutral [0] to icy cold [-4]
Experimental: ODT-C. More experiments were conducted to find a smaller tablet, in the range of 40 to 60 mg, with a disintegration of <10 sec. These paraemters might achieve a better pharmacological effect. ODT-B was 100 mg in size and disintegrated in <20 sec. […] For example, to 1.5 g of DAPA-2-5 is added 1.5 g of absolute ethanol, followed by 2.0 g of Neusilin US2. The mixture is shaken or mixed in a Speedmixer at 500 rpm for 1 min. The sample is placed under a heat source and about 2 hr later, the sample size is re-weighed with the expectation that the ethanol has been evaporated and the sample now weights 3.5 g. This powder is free-flowing. • b. a sample of maltitol powder is prepared (Maltisorb® P200 from Roquette). • c. a sample of Prosolv® EasyTab is prepared (JRS Pharma, Rosenburg, Germany). • d. a blend of a. [2.80 g], b. [15.73 g] and c. [31.46 g] is prepared to make 1000 ODT tablets, each weighing 50 mg and containing 1.2 mg of DAPA-2-5. • e. the blend is first shaken by hand, then placed for 2 min in a SpeedMixer at 500 rpm. The blend is poured into the funnel of a New Single Punch Tablet Press Pill Making Machine Maker TDP-1-5 [available from Amazon.com] and the extruded tablets are collected.
ODT-C, described in Study 2, were tested for sensory properties on 4 volunteers, with at least 3 trials per compound and at 1.2 to 1.5 mg per ODT. The ODT was placed on the mid-line posterior dorsal surface of the tongue and sensory effects recorded for 30 min on a standardized form […]. The ODT were coded and administered on a double-blind basis. A modified ASHRAE scale of neutral, slightly cool [-1], cool [-2], cold [-3], and icy cold [-4] was used to rank the peak heat abstraction sensations in the mouth and throat. Other perceived effects, e.g. taste and duration, were also noted.

[4] = tested on: oropharynx; experiment: Chili-pepper sauce irritation test; parameters: key: If there was no suppression of the irritant/tickling sensations of the sauce, the value was “0”; if there was some suppression, the value was “+”; if there was complete suppression, then the value was “++.”; settings: ODT, sauce applied 30 min later; 6 to 8 trials per compound
Source text: The “pain” component of inflammation includes irritation, itch, and discomfort and suppression of these endpoints is termed “anti-nociceptive”. To determine if a compound has anti-nociceptive activity, the Inventor has devised a modified capsaicin challenge method to evoke discomfort in the oropharyngx: the chili-pepper sauce irritation test. Chili-pepper sauce placed onto the posterior dorsal surface of the tongue evokes a tickling/irritant sensations in the oropharynx. The sensations associated with the chili pepper sauce are located in the back of the mouth and are clearly recognized and associated with irritation and a desire to clear the throat. In the chili-pepper sauce irritation test, the test compound is delivered using an ODT, as in Study 3, and 30 min later 0.2 to 0.25 mL of the sauce was applied onto the posterior dorsal surface of the tongue (with a syringe or a plastic stick). The chili pepper sauce used here is called Yank Sing® Chili Pepper Sauce (YS Gourmet Productions, Inc., PO Box 26189, San Francisco, Calif. 94126) and is a well-known condiment for use with dim sum (Chinese tea lunch). If there was no suppression of the irritant/tickling sensations of the sauce, the value was “0”; if there was some suppression, the value was “+”; and if there was complete suppression, then the value was “++.” For compounds that gave a ++ score, the irritative signals of the chili-pepper sauce are completely absent, yet the salty taste from the soy sauce of the condiment can still be readily tasted. A “++” result indicated suppression of the irritant effects of chili-pepper sauce. Numerical results are from 6 to 8 trials per compound.

| SMILES | Cold Discomfort [2] | Duration [1] [min] | Onset [1] [min] | Sensory Quality [1] | ODT-C test results (sensation and taste in words) [3] | quality of heat abstraction sensation (peak intensity) [3] | duration of cooling effect [3] | ASHRAE equivalent [3] | Chili test [4] |
| --- | --- | --- | --- | --- | --- | --- | --- | --- | --- |
| CCCCCP(=O)(C(C)CC)C(C)CC (stereo not shown) [DAPA-2-5, 1-Di(sec-butyl)-phosphinoyl-pentane] | 0 | 12 | 0.1 | dynamic cool | pleasant dynamic cool | refreshing coolness and cold | 12 to 15 min | −2.7 | ++ |
| CCCCCCCP(=O)(C(C)CC)C(C)CC (stereo not shown) [DAPA-2-7, 1-Di(sec-butyl) phosphinoyl-heptane] | ++ | 21 | 0.7 | cool/cold | intense sensation of icy cold, but has unpleasant | cold and icy cold which was painful to the back of the throat | taste on the tongue, long-lasting >15 min | −3.5 | ++ |
| CCCCCCCCP(=O)(C(C)CC)C(C)CC (stereo not shown) [DAPA-2-8, 1-Di(sec-butyl) phosphinoyl-octane] | + | 27 | 1.2 | cool | strong unpleasant taste | – | – | −2.7 | + |

More lines, main results first:

| Cold Discomfort [2] | SMILES | Duration [1] [min] | Onset [1] [min] | Sensory Quality [1] | ODT-C test results (sensation and taste in words) [3] | quality of heat abstraction sensation (peak intensity) [3] | duration of cooling effect [3] | ASHRAE equivalent [3] | Chili test [4] |
| --- | --- | --- | --- | --- | --- | --- | --- | --- | --- |
| ++ | CCCCCCP(=O)(C(C)C)C(C)C [DAPA-1-6, 1-Di(isopropyl)-phosphinoyl-hexane] | 16 | 0.6 | cool/cold | intense sensation of icy cold, but has unpleasant | cold and icy cold which was painful to the back of the throat | lasting >10 min | −3.5 | ++ |
| + | CCCCCCCP(=O)(C(C)C)C(C)C [DAPA-1-7, 1-Di(isopropyl)-phosphinoyl-heptane] | 16 | 0.6 | cool/cold | intense sensation of icy cold, but has unpleasant | cold and icy cold which was painful to the back of the throat | taste on the tongue: test dose of 1 to 2 mg, >15 min. | −3.5 | ++ |
| ++ | CCCCCCP(=O)(C(C)CC)C(C)CC (stereo not shown) [DAPA-2-6, 1-Di(sec-butyl) phosphinoyl-hexane] | 18 | 0.7 | cool/cold | intense sensation of icy cold, but has unpleasant | cold and icy cold which was painful to the back of the throat | taste on the tongue, long-lasting >15 min | −3.2 | ++ |
